In patent US11851431B2, “Tricyclic Janus kinase 1 inhibitors, and compositions and methods thereof” (LYNK PHARMACEUTICALS CO. LTD., priority 2018, dated 2023):
Like-named read-outs stand apart in the source and are kept apart here.

Experiments:
JAK2 = biological target: T1, JAK2 (Homo sapiens, UniProt O60674); experiment: JAK biochemical microfluidic assay (Caliper EZ Reader), JAK2; settings: 1 mM ATP; head prints (0.25 nM)
T1 construct: purchased Carna Biosciences
Procedure: (§1) JAK activity was determined in the reaction buffer 50 mM HEPES, 0.01% Brij35, 10 mM MgCl2, 2 mM DTT by a microfluidic assay. The phosphorylation of a FAM labeled peptide substrate was monitored in the Caliper EZ Reader II (Perkin Elmer). The assay condition for each batch of enzyme (Carna Biosciences) was optimized to obtain 10% conversion rate of peptide substrate.
(§2) The test compounds were dissolved in DMSO to a stock concentration of 10 mM. Three-fold serially diluted compounds with top concentration of 5 μM were pre-incubated with JAK1, JAK2 or TYK2 for 10 min at ambient temperature. The final DMSO concentration of assay mixture was 1%. […] The reaction was stopped by adding 50 mM EDTA.
(§3) The percent inhibition was calculated by the following formula. % Inhibition=(Conversionmax−Conversionsample)/(Conversionmax−Conversionmin)*100 Conversionmax means the conversion rate in the positive well without addition of compound • […] means the conversion rate in the well without addition of enzyme • Conversionsample means the conversion rate of test compounds
(§4) The dose-response (percent inhibition) curve was plotted and IC50 values were determined by GraphPad software.

[1] = Human liver microsome stability study; type: in vitro ADME; settings: liver microsomes, pH 7.4, 0.5 mg/mL microsomal protein, 1 μM test article; for microsomal CLint at 1 μM: read-out: HLM Clint; for half-life at 1 μM: read-out: HLM T½
Procedure: Commercially available human liver microsome (vendor: Corning) were used for study the Phase I stability of test articles.
Microsomes were pre-incubated with test compound or control compounds for 10 min at 37° C. in 100 mM potassium phosphate buffer, pH 7.4, 3.3 mM MgCl2. The reaction was initiated by addition of 80 μL of the NADPH regenerating system to 320 μL of each incubation mixture per time point. The final incubation condition was composed of 0.5 mg/mL microsomal protein, 1 μM test article/positive control, 1.3 mM NADP, 3.3 mM glucose-6-phosphate, and 0.6 U/mL glucose-6-phosphate dehydrogenase. The 0-minute samples were prepared by addition of an 80 μL aliquot of each incubation mixture to 400 μL quench reagent to precipitate proteins. And then a 20 μL aliquot of the NADPH regenerating system was added. At 10, 30, and 90 minutes, the reaction will be stopped by the addition of cold acetonitrile solution containing tolbutamide and propanolol served as internal standard. The samples taken at all time points were centrifuged at 4000×g for 15 minutes. 80 μL of supernatant are taken into 96-well assay plates pre-added with 160 μL ultrapure water, and then analyzed by LC/MS/MS (Shimadzu LC30AD & API4000/API5000)).
Concentrations of test articles, control compounds in the samples were determined by using LC/MS/MS) method. Plotting of the chromatograms and peak area integrations are carried out by Analyst (AB Sciex).
In the determination of the in vitro elimination constant, ke, of the control compounds, the analyte/internal standard peak area ratios will be converted to percentage remaining (% Remaining) with the following equation:
The CLint of microsomes was calculated using the formula: CLint (mic)=0.693/T1/2/mg microsome protein per mL.

TYK2 = biological target: T2, TYK2 (Homo sapiens, UniProt P29597); experiment: JAK biochemical microfluidic assay (Caliper EZ Reader), TYK2; settings: 1 mM ATP; head prints (2.5 nM)
T2 construct: purchased Carna Biosciences
T2 sequence (P29597 whole entry): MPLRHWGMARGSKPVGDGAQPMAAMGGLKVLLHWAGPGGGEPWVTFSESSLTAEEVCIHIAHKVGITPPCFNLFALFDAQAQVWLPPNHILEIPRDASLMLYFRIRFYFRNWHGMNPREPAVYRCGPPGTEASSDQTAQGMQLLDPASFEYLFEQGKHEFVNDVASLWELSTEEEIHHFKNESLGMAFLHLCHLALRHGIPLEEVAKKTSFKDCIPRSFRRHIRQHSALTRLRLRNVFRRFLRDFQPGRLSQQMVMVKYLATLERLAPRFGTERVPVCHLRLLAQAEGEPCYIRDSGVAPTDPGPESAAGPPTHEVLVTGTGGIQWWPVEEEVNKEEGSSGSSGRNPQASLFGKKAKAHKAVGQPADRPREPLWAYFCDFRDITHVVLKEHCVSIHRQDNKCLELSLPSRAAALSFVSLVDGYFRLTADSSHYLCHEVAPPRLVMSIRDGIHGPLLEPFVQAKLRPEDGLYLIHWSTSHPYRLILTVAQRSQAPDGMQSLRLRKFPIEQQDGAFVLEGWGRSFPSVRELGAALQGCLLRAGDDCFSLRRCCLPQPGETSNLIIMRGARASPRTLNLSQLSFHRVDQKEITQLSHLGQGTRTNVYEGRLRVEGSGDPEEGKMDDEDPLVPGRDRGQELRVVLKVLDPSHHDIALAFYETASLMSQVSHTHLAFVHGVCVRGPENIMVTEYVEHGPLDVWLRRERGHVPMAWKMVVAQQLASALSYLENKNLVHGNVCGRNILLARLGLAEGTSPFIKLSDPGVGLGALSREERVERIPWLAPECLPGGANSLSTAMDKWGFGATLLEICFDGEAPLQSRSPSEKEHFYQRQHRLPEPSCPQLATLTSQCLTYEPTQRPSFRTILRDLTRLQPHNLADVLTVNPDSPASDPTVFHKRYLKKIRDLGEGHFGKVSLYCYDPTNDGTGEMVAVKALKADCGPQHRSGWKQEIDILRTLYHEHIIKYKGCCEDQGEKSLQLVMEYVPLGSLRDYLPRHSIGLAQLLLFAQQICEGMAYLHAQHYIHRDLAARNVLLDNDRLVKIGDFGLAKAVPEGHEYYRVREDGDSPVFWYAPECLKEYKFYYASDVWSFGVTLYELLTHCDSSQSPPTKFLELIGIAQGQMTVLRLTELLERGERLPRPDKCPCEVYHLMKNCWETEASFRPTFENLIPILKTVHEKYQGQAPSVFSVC
Procedure: as §1, §2, §3, §4

[2] = Rat pharmacokinetic study; type: in vivo, Sprague-Dawley rats; settings: for half-life: read-out: t½ (converted); for Pharmacokinetic profile in rats: conclusion in words
Procedure: Pharmacokinetic profile of test articles were evaluated in fasted Sprague-Dawley rats. Typically, Rats were dosed with 1 mg/kg and 2 mg/kg by intravenous injection and oral gavage, respectively. After dosing, blood samples were collected at each time point. For IV injection group, time points were set at 5, 15, 30 min, and then 1, 2, 4, 8 and 24 hours after dosing. For oral gavage group, time points were set at 15, 30 min, and then 1, 2, 4, 8, and 24 hours. Blood was collected into appropriately labeled tubes containing K2EDTA as the anticoagulant. Plasma was obtained within 1 hours of blood collection by centrifugation at 8000×g and 4° C. for 6 minutes, and then stored at −20° C. until analyzed by LC/MS/MS for quantification.
PK parameter values, including, but not necessarily limited to, the maximum plasma concentrations (Cmax), the time to reach the maximum concentrations (Tmax), and the area under the plasma concentration vs. time curve (AUC) from time zero to 24-hour (AUC0-24h) were determined using WinNonlin program.

BaF3-TEL-JAK1 = experiment: Anti-proliferative assay, BaF3-TEL-JAK1 cells; type: cell-based; settings: 72 h, Cell-Titer Glo
Procedure: (§5) Dimerization domain of Tel protein fused with JAK kinase domain was permanently transduced into BaF3 cells, whose proliferation is dependent on JAK activity in the absence of IL-3 induction. These engineered BaF3-Tel-JAK cells were used to monitor JAK inhibitory activities of the compounds in the cellular.
(§6) BaF3-Tel-JAK cells were cultured in RPMI-1640 (Corning) containing 10% fetal bovine serum. Cells were seeded at 2000/well of white flat bottom 96-well plates. The well containing medium only was used as background control. After 24h growth, cells were treated with compounds. The test compounds were dissolved in DMSO to a stock concentration of 10 mM. 3-fold serially diluted compounds for 9 concentrations with top concentration of 10 μM was added into the each well. The final DMSO concentration was 0.2%. The cells continued to grow at 37° C. in 5% CO2 for 72 h after compound treatment. The viability was measured by cellular ATP determination using the Cell-Titer Glo luciferase reagent (Promega). The Luminescence value was recorded by a multi-label reader Envision (PerkinElmer). Values were transformed to percent inhibition using the following formula. % Inhibition=(Readoutmax−Readoutsample)/(Readoutmax−Readoutmin)*100
(§7) The well without compound but with equivalent DMSO was defined as Readout max
(§8) The well with only medium and equivalent DMSO was defined as Readout min
(§9) The dose-response (percent inhibition) curve was plotted and GI50 values (the concentration that causes 50% growth inhibition) were determined by GraphPad software.

BaF3-TEL-JAK2 = experiment: Anti-proliferative assay, BaF3-TEL-JAK2 cells; type: cell-based; settings: 72 h, Cell-Titer Glo
Procedure: as §5, §6, §7, §8, §9

JAK1 = biological target: T3, JAK1 (Homo sapiens, UniProt P23458); experiment: JAK biochemical microfluidic assay (Caliper EZ Reader), JAK1; settings: 1 mM ATP; head prints (5 nM)
T3 construct: purchased Carna Biosciences
T3 sequence (P23458 whole entry): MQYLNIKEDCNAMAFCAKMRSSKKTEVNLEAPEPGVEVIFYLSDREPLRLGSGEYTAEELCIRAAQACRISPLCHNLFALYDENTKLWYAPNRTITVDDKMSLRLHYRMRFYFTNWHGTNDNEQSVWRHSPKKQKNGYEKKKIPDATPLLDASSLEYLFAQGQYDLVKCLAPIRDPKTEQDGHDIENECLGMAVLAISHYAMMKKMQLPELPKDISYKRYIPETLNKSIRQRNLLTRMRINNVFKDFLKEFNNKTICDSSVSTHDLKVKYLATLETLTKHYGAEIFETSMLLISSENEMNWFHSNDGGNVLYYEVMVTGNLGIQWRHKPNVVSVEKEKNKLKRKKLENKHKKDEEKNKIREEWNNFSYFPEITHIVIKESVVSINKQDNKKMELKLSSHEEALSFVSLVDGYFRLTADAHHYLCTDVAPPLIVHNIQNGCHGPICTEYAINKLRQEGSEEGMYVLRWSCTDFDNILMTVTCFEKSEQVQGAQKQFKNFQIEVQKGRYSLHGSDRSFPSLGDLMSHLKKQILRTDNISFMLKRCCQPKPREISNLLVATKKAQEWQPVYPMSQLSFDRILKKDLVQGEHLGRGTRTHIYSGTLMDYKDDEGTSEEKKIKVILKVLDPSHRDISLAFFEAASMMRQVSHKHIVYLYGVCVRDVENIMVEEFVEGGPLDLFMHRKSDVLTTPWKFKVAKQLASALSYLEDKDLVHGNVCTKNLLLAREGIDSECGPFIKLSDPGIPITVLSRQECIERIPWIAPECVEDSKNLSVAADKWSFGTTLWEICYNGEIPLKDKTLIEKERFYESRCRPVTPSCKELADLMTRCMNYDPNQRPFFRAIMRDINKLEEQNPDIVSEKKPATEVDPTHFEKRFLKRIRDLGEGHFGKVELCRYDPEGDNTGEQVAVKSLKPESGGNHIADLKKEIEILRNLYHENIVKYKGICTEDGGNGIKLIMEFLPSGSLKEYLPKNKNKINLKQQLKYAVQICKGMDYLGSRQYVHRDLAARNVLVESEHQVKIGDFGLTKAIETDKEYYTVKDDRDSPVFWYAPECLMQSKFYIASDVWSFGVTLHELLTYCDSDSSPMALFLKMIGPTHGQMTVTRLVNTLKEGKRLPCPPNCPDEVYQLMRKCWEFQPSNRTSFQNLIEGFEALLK
Procedure: as §1, §2, §3, §4

[3] = Sprague-Dawley, plasma, 1 mg/kg, Rat iv @1 mpk, 0.2 mg/mL in 5% DMSO + 15% Solutol HS 15 + 80% Saline
[4] = Sprague-Dawley, plasma, 2 mg/kg, Rat po @2 mpk, 0.2 mg/mL in 5% DMSO + 15% Solutol HS 15 + 80% Saline
[5] = Sprague-Dawley, plasma, 1 mg/kg, Rat iv @1 mpk, 0.2 mg/mL in 4% DMSO + 15% Solutol HS 15 + 81% Saline

T1 sequence (O60674 whole entry): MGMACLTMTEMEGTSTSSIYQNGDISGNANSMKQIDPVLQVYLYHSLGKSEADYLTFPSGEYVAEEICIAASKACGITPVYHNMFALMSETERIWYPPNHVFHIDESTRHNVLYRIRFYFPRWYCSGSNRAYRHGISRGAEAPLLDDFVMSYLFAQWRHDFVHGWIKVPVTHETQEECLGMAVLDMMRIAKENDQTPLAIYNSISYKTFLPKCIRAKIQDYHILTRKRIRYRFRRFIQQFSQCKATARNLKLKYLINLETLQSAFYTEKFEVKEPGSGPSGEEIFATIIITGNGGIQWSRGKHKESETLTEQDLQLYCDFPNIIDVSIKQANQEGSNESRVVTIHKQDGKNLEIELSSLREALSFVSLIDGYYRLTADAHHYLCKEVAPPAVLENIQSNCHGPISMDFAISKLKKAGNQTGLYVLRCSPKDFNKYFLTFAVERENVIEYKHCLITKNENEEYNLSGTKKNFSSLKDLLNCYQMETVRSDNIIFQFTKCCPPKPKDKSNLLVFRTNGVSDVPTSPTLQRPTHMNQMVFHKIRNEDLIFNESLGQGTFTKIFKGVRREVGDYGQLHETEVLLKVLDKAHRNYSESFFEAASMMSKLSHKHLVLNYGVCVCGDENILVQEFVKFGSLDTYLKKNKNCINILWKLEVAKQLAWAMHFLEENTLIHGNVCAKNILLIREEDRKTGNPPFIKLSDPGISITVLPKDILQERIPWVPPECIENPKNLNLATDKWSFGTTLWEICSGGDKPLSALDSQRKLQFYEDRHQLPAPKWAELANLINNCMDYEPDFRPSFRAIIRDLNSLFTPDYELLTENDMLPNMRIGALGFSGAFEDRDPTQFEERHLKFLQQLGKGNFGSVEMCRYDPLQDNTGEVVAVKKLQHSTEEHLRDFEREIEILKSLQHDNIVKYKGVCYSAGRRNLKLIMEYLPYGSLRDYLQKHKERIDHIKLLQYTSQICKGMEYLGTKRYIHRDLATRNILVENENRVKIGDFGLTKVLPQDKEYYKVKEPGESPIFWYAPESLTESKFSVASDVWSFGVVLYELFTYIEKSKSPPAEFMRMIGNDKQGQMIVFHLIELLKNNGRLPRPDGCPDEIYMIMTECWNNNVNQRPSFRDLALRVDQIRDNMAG

IC50 (JAK2) [nM]	microsomal CLint at 1 μM [1] [µL/min/mg]	half-life at 1 μM [1] [h]	IC50 (TYK2) [nM]	F ([2]; Rat po @2 mpk, 0.2 mg/mL in 5% DMSO + 15% Solutol HS 15 + 80% Saline) [%]	AUC [2, 3] [ng·h/mL]	Vd [2, 3] [L/kg]	clearance [2, 3] [mL/min/kg]	half-life [2, 3] [h]	AUC [2, 4] [ng·h/mL]	Cmax [2, 4] [ng/mL]	half-life [2, 4] [h]	Pharmacokinetic profile in rats [2]	GI50 (BaF3-TEL-JAK1) [nM]	GI50 (BaF3-TEL-JAK2) [nM]	IC50 (JAK1) [nM]	AUC [2, 5] [ng·h/mL]	Vd [2, 5] [L/kg]	clearance [2, 5] [mL/min/kg]	half-life [2, 5] [h]	Compound
141	4.1	5.69	119	21.90	458	1.42	36.2	0.46	190	92.8	2.06	good Pharmacokinetic profile	19.6	354	5.95					CCCS(=O)(=O)NC12CC(n3cnc4cnc5[nH]ccc5c43)(C1)C2 [Example 1, N-(3-(Imidazo[4,5-d]pyrrolo[2,3-b]pyridin-1(6H)-yl)bicyclo[1.1.1]pentan-1-yl)propane-1-sulfonamide]
83.2	2.11	10.9	111									good Pharmacokinetic profile			3.2	402	0.93	41.9	0.26	N#CC1CN(S(=O)(=O)NC23CC(n4cnc5cnc6[nH]ccc6c54)(C2)C3)C1 [Example 4, 3-Cyano-N-(3-(imidazo[4,5-d]pyrrolo[2,3-b]pyridin-1(6H)-yl)bicyclo[1.1.1]pentan-1-yl)azetidine-1-sulfonamide]
122	1.01	23	400										50.1	108	14.8					O=C(CC1CC1)NC12CC(n3cnc4cnc5[nH]ccc5c43)(C1)C2 [Example 13, 2-Cyclopropyl-N-(3-(imidazo[4,5-d]pyrrolo[2,3-b]pyridin-1(6H)-yl)bicyclo[1.1.1]pentan-1-yl)acetamide]
73.1	0.77	29.8													8.06					N#CCCC(=O)NC12CC(n3cnc4cnc5[nH]ccc5c43)(C1)C2 [Example 14, 3-Cyano-N-(3-(imidazo[4,5-d]pyrrolo[2,3-b]pyridin-1(6H)-yl)bicyclo[1.1.1]pentan-1-yl)propanamide]
89.5	1.04	22.3											48.2	86.7	8.4					O=C(NC12CC(n3cnc4cnc5[nH]ccc5c43)(C1)C2)C1CC(F)(F)C1 [Example 17, 3,3-Difluoro-N-(3-(imidazo[4,5-d]pyrrolo[2,3-b]pyridin-1(6H)-yl)bicyclo[1.1.1]pentan-1-yl)cyclobutanecarboxamide]
45.5	1.24	18.6	28.4										54	163	6.1					O=S(=O)(NC12CC(n3cnc4cnc5[nH]ccc5c43)(C1)C2)N1CC(F)C1 [Example 22, 3-Fluoro-N-(3-(imidazo[4,5-d]pyrrolo[2,3-b]pyridin-1(6H)-yl)bicyclo[1.1.1]pentan-1-yl)azetidine-1-sulfonamide]
129			170										27.8	198	4.8					CCCCS(=O)(=O)NC12CC(n3cnc4cnc5[nH]ccc5c43)(C1)C2 [Example 31, N-(3-(imidazo[4,5-d]pyrrolo[2,3-b]pyridin-1(6H)-yl)bicyclo[1.1.1]pentan-1-yl)butane-1-sulfonamide]
155	2.72	8.5	151										33.6	122	6.7					O=S(=O)(CCC(F)(F)F)NC12CC(n3cnc4cnc5[nH]ccc5c43)(C1)C2 [Example 32, 3,3,3-Trifluoro-N-(3-(imidazo[4,5-d]pyrrolo[2,3-b]pyridin-1(6H)-yl)bicyclo[1.1.1]pentan-1-yl)propane-1-sulfonamide]
78.3			108										14.2	133	2.2					O=S(=O)(CC1CC(F)(F)C1)NC12CC(n3cnc4cnc5[nH]ccc5c43)(C1)C2 [Example 46, 1-(3,3-Difluorocyclobutyl)-N-(3-(imidazo[4,5-d]pyrrolo[2,3-b]pyridin-1(6H)-yl)bicyclo[1.1.1]pentan-1-yl)methanesulfonamide]
